The values that follow come from patent US7829669B2, “Catalytically active recombinant memapsin and methods of use thereof” (Oklahoma Medical Research Foundation, priority 1999, dated 2010).

Assay [1] concerns APP cleavage by M2 in HeLa cells. In words: APP cleavage in HeLa cells co-transfected with APP and M2, pulse-chase and immunoprecipitation. In kind it is cell-based, human. The settings on record: Bafilomycin A1 in the media.
A further assay concerns the target T1, M2pd (Homo sapiens, UniProt P56817).
T1 construct: Pro-memapsin 2 residues start at residue Ala-16; The two recombinant pro-memapsin 2s have different C-terminal lengths; Clone T1 ends at Thr-456; made in house
In words: Hydrolysis of synthetic peptide substrates by M2pd, kinetics by HPLC. It is filed as biochemical. From the text: A synthetic peptide derived from this site (SEVKM/DAEFR) (SEQ ID NO:4) was hydrolyzed by M2pd at the beta-secretase site (marked by /). A second peptide (SEVNL/DAEFR) (SEQ ID NO:5) derived from the APP beta-secretase site and containing the ‘Swedish mutation’ (Mullan, M. et al., Nature Genet. 2:340-342 (1992)), known to elevate the level of alpha-beta production in cells (Citron, M. et al., Nature […] (1992)), was hydrolyzed by M2pd with much higher catalytic efficiency. Both substrates were optimally cleaved at pH 4.0. A peptide derived from the processing site of presenilin 1 (SVNM/AEGD) (SEQ ID NO:6) was also cleaved by M2pd with less efficient kinetic parameters. […]
Incubation in 0.1 M sodium acetate, pH 4.0, for 16 h at 22° C. auto-catalytically converted pro-M2pd to M2pd. […] For kinetic studies, the identified HPLC (Beckman System Gold) product peaks were integrated for quantitation. The Km and kcat values for presenilin 1 and Swedish APP peptides (Table 1) were measured by steady-state kinetics. The individual Km and kcat values for APP peptide could not be measured accurately by standard methods, so its kcat/Km value was measured by competitive hydrolysis of mixed substrates against presenilin 1 peptide (Fersht, A. “Enzyme Structure and Mechanism”, 2nd Ed., W.H. Freeman and Company, New York. (1985)).

T1 sequence (P56817 14-454): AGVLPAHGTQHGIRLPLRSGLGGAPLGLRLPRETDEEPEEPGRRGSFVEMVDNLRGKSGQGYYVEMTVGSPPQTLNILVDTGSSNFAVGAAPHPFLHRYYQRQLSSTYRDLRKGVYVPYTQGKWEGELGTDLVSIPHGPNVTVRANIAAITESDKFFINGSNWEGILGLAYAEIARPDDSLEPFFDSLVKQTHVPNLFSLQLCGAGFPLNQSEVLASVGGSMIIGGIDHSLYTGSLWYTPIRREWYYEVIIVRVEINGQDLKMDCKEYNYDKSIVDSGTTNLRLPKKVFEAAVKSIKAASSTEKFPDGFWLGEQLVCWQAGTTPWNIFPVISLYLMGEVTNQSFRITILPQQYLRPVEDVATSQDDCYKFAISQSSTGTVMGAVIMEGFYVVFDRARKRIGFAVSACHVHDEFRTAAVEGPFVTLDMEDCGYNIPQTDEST

Turning to `CO/C1=C\C(C)=C\[C@@H](C)[C@@H](O)[C@@H](C)C/C(C)=C/C=C/[C@H](OC)[C@@H]([C@@H](C)[C@@H](O)[C@H](C)[C@@]2(O)C[C@@H](O)[C@H](C)[C@@H](C(C)C)O2)OC1=O` [Bafilomycin A1], the “production of APP fragments beta N- and beta C-” value in assay [1] is listed as “abolished the production of both APP fragments”. As for KGGVVIATVIVK, the “cleavage by M2pd” value with M2pd is “not cleaved”.
